# From patent publication US9995734B2, “Human T cell line assay for evaluating the immunologic identity of glatiramer acetate preparations” (Mylan Inc., priority 2013, dated 2018)
# Key:
# [1] = tested on: Donor 3 COP T-cell lines (165-B6C, 165-C7C, 165-D3C, 165-F3C, 165-F6C); experiment: MHC DR restriction testing (ATP proliferation with autologous and partially HLA-DR matched APC), Donor 3 COP T-cell lines; type: cell-based, human; details: 20 μg/mL
# Protocol: MHC DR restriction testing of cell lines was carried out by measuring the proliferation response of the cell lines as described above in the presence of an array of APC selected based on the known HLA-DR loci of the original PBMC donor for the cell line tested, including autologous APC (B-LCL). The donors used are described in Table 2.
# To define the MHC molecule used to present antigen to GA specific T cell lines, GA specific responses were measured in the presence of autologous APC and in the presence of APC matching one of the T cell donor's HLA-DR alleles. Therefore at least 3 APC were used in each experiment: autologous APC, APC matching DR allele 1 but not allele 2 and a third APC matching allele 2 but not allele 1. In some experiments a fourth APC B-LCL was used. A no antigen negative control was used. APC were inactivated by incubation with 50 ug/mL mitomycin C. Following inactivation, cells were washed three times to remove mitomycin C and suspended in X-VIVO 15 medium at 1×10^6 cells per mL. GA was added to the cell suspension to a final concentration of 20-60 μg/mL. The cells were incubated with antigen for 1 hour at 37° C. to allow antigen uptake and binding. The cell suspension was then centrifuged to pellet the cells and the cell pellet was washed once with medium. APC were adjusted to 2×10^5 cells per mL in X-VIVO 15 medium and added to opaque 96-well plates at 100 μL per well. T-cell suspensions of 2-4×10^5 cells per mL (unless otherwise specified) were added to the 96-well plates at 100 μL per well and the cultures incubated 4 days before measuring cell numbers using CellTiter Glo® (to evaluate proliferation).
# Alternatively, APC were not pulsed. Instead, each well contained 10 ug/mL antigen, 50 μl APC and 100 μL of T cells.
# After incubating for 4 days at 37° C. (5% CO2), 100 μL were removed from each well, combined with 100 μL CellTiterGlo reagent, and luminescence was measured using a Packard Fusion. Results were expressed in relative light units (RLU).
# As described in the Methods, T-cell lines were tested for MHC restriction by measuring proliferation following incubation with APC. Mitomycin-treated autologous APC, and test APC, e.g., from donors having at least one HLA-DR match with the original PBMC donor were employed. The values in the data tables below are in RLU.
# (§1) Donor 3 T-cell line 165-B6C was assayed for proliferation, using mitomycin-treated APC from Donors 3, 5, and 6 that had been incubated in the presence or the absence of 20 μg/mL COP. T-cell line 165-B6C had been restimulated six times (not including the initial stimulation) with antigen before the MHC restriction assay was carried out. The data, shown in Table 68 and FIG. 12A, indicate that […] is restricted by HLA-DRβ1*11.
# as §1, with “165-C7C” for “165-B6C”, “five” for “six”, “69” for “68”, “12B,” for “12A,”
# T-cell line 165-D3C had been restimulated six times (not including the initial stimulation) with antigen before the MHC restriction assay was carried out. The data, shown in Table 70 and FIG. 13A, indicate that 165-D3Cis restricted by HLA-DRβ1*1501.
# T-cell line 165-F3C had been restimulated eight times (not including the initial stimulation) with antigen before the MHC restriction assay was carried out. The data, shown in Table 71 and FIG. 13B, indicate that 165-F3C is restricted by HLA-DRβ1*11.
# Donor 3 T-cell line 165-F6C was assayed for proliferation, using mitomycin-treated APC from Donors 3, 5, and 6 that had been incubated in the presence or the absence of 20 μg/mL COP. […]
# [2] = tested on: Donor 2 Human T-Cell Lines; experiment: BrdU uptake proliferation assay, Donor 2 T-cell lines stimulated with GMA; type: cell-based; details: 100 μg/mL GMA; for BrdU uptake: Day 13
# Protocol: Proliferation was evaluated by measuring ATP content using a luminescent method (CellTiter Glo Luminescent Cell Viability Assay, Promega, Madison, Wis., cat. #G7571) or by measuring BrdU uptake by ELISA (Millipore cat. #2752), in both cases following kit instructions. A split well format was used. Cells in each well were resuspended and 65 μl transferred to the wells of each of two new U-bottom 96-well plates, to generate the replicate plates. […] Therefore, all three plates received autologous APC (PBMC) treated with mitomycin C to prevent cell division. […] The latter two plates were incubated for 3 days at 37° C., 6% CO2 before adding CellTiter Glo or BrdU and measuring signal. IL-2 was added at 10 U/mL to the original 96-well plate for expansion on Day 17. For subsequent screenings, mitomycin-treated EBV-transformed autologous B-LCL (2×10^5 to 5×10^5 cells/mL) were used as APC.
# PBMC were obtained from a normal, healthy, donor having MHC Class II HLA-DRβ1 04:01, 04:04 (Donor 2). […] Nine presumptive GA-specific human T-cell lines were selected for expansion and further analysis based on an increase in the OD of the GA-stimulated test sample of at least 50% relative to an unstimulated control sample.
substance,measurement,setting,value
glatiramer acetate [GMA],Proliferation with antigen-incubated APC,"[1]; T-cell line 165-B6C, B-LCL Donor 3 (Autologous) DRβ1*1501/DRβ1*11",2237 RLU
same,Proliferation with antigen-incubated APC,"[1]; T-cell line 165-B6C, B-LCL Donor 5 DRβ1*01/DRβ1*11",8944 RLU
same,Proliferation with antigen-incubated APC,"[1]; T-cell line 165-B6C, B-LCL Donor 6 DRβ1*1501/DRβ1*13",322 RLU
same,Proliferation with antigen-incubated APC,"[1]; T-cell line 165-C7C, B-LCL Donor 3 (Autologous) DRβ1*1501/DRβ1*11",13714 RLU
same,Proliferation with antigen-incubated APC,"[1]; T-cell line 165-C7C, B-LCL Donor 5 DRβ1*01/DRβ1*11",94535 RLU
same,Proliferation with antigen-incubated APC,"[1]; T-cell line 165-C7C, B-LCL Donor 6 DRβ1*1501/DRβ1*13",1189 RLU
same,Proliferation with antigen-incubated APC,"[1]; T-cell line 165-D3C, B-LCL Donor 3 (Autologous) DRβ1*1501/DRβ1*11",106840 RLU
same,Proliferation with antigen-incubated APC,"[1]; T-cell line 165-D3C, B-LCL Donor 5 DRβ1*01/DRβ1*11",12173 RLU
same,Proliferation with antigen-incubated APC,"[1]; T-cell line 165-D3C, B-LCL Donor 7 DRβ1*1501/DRβ1*03",149506 RLU
same,Proliferation with antigen-incubated APC,"[1]; T-cell line 165-F3C, B-LCL Donor 3 (Autologous) DRβ1*1501/DRβ1*11",45559 RLU
same,Proliferation with antigen-incubated APC,"[1]; T-cell line 165-F3C, B-LCL Donor 5 DRβ1*01/DRβ1*11",39565 RLU
same,Proliferation with antigen-incubated APC,"[1]; T-cell line 165-F3C, B-LCL Donor 6 DRβ1*1501/DRβ1*3",7869 RLU
same,Proliferation with antigen-incubated APC,"[1]; T-cell line 165-F6C, B-LCL Donor 3 (Autologous) DRβ1*1501/DRβ1*11",12562 RLU
same,Proliferation with antigen-incubated APC,"[1]; T-cell line 165-F6C, B-LCL Donor 5 DRβ1*01/DRβ1*11",3142 RLU
same,Proliferation with antigen-incubated APC,"[1]; T-cell line 165-F6C, B-LCL Donor 6 DRβ1*1501/DRβ1*13",30293 RLU
same,BrdU uptake,"[2]; 206-1A6, control 0.220",0.563 OD450
same,BrdU uptake,"[2]; 206-1A7, control 0.329",0.688 OD450
same,BrdU uptake,"[2]; 206-1A11, control 0.151",0.452 OD450
same,BrdU uptake,"[2]; 206-1C12, control 0.272",0.626 OD450
same,BrdU uptake,"[2]; 206-1H1, control 0.109",0.447 OD450
same,BrdU uptake,"[2]; 206-1H2, control 0.095",0.526 OD450
same,BrdU uptake,"[2]; 206-2A1, control 0.259",0.548 OD450
same,BrdU uptake,"[2]; 206-2A10, control 0.162",0.444 OD450
same,BrdU uptake,"[2]; 206-2C3, control 0.146",0.358 OD450
same,difference in BrdU uptake from control,[2]; nine Donor 2 lines of Table 17,greater than two-fold
same,increase in the OD of the GA-stimulated test sample relative to an unstimulated control sample,[2]; nine Donor 2 lines of Table 17,at least 50%
